Results from patent publication US20150119267A1, “INHIBITION OF COLONY STIMULATING FACTOR-1 RECEPTOR SIGNALING FOR THE TREATMENT OF BRAIN CANCER” (SLOAN-KETTERING INSTITUTE FOR CANCER RESEARCH, priority 2012, published 2015).
Entries after “also recorded” stand apart in the source; their conditions may differ.

Experiments:
[1] = test system: CSF1-dependent cell proliferation; experiment: CSF1-dependent cell proliferation; format: cell-based; settings: read-out: inhibits CSF1-dependent cell proliferation
[2] = test system: CRL-2467 microglia cell line; experiment: MTT assay, CRL-2467 microglia; format: cell-based
Experimental: (§1) U-87 MG (HTB-14) glioma and CRL-2467 microglia cell lines were purchased from ATCC. The U-87 MG cell line was cultured in DMEM+10% FBS. The CRL-2467 cell line was cultured in DMEM+10% FBS with 30 ng/ml recombinant mouse CSF-1.
(§2) Cell growth rate was determined using the MTT cell proliferation kit (Roche). […] Media was changed every 48 hours. BMDM and CRL-2467 cells were supplemented with 10 ng/ml and 30 ng/ml recombinant mouse CSF-1 respectively unless otherwise indicated. Ten μl of MTT labeling reagent was added to each well and then incubated for 4 hours at 37° C., followed by the addition of 100 μl MTT solubilization reagent overnight. The mixture was gently resuspended and absorbance was measured at 595 nm and 750 nm on a SPECTRAMAX 340 pc plate reader (Molecular Devices).

established PDG gliomas = experiment: Short-term 7 day trial on established tumors (MRI, histology); format: in vivo, mouse; settings: for Apoptosis (% CC3+) / Macrophages (% CD68+) / Phagocytic Capacity / Proliferation (% BrdU+Olig2+) / Total DAPI+ Cells / Tumor Cells (% Olig2+) / Vasculature (CD31 MVD): relative to vehicle
[3] = test system: secondary neurospheres from PDG tumors; experiment: Secondary neurosphere formation assay; format: cell-based, mouse; settings: concentrations up to 6700 nM
Experimental: (§3) For neurosphere formation the cell pellet was resuspended in neurosphere media consisting of mouse NSC Basal Media, NSC proliferation supplements, 10 ng/ml EGF, 20 ng/ml basic-FGF and 1 mg/ml Heparin (Stem Cell Technologies). Fresh media was added every 72 hours for 2 weeks. Primary neurospheres were collected, mechanically disaggregated to a single cell suspension and propagated by serial passaging. To generate glioma cell lines, secondary neurospheres were dissociated to single cell suspensions and cultivated in DMEM+10% FBS as a monolayer (10). Multiple glioma cell lines were derived from independent mice, denoted GBM1-4 herein. Glioma cells were infected with a pBabe-H2B-mCherry construct as described previously (11).
Primary neurospheres were disaggregated to a single cell suspension and 5×10^3 cells were plated in a 6 well plate in neurosphere media in the presence of the CSF-1R inhibitor or DMSO as vehicle. Media was changed every 48 hours. Secondary neurosphere formation was assayed by counting the number of neurospheres obtained after 2 weeks.

PDG tumor cell lines = experiment: MTT assay, PDG tumor cell lines; format: cell-based, mouse; settings: concentrations up to 6700 nM
Experimental: as §3, §2

U-87 MG glioma cell line = experiment: MTT assay, U-87 MG; format: cell-based, human; settings: concentrations up to 6700 nM
Experimental: as §1, §2

[4] = test system: PDGF-driven gliomas (PDG); experiment: Long-term survival trial in PDG mice; format: in vivo
[5] = test system: glioma cells co-cultured with BMDMs; experiment: Glioma cell / BMDM co-culture cell cycle analysis; format: cell-based, mouse; settings: 670 nM BLZ945, 48 hours
Experimental: Media that had been conditioned by glioma tumor cell lines grown in serum free media for 24 hours was passed through 0.22 μm filters to remove cellular debris, and is referred to herein as glioma cell-conditioned media (GCM). GCM was used to stimulate differentiated C57BL/6 WT or β-actin-GFP^+ BMDMs. Control macrophages received fresh media containing 10% FBS and 10 ng/ml recombinant mouse CSF-1.
Following collection of trypsinized co-cultured cells, wells were rinsed in additional media and this volume was collected to ensure harvesting of all macrophages, which adhered tightly to cell culture dishes. Samples were then washed once with FACS buffer, followed by incubation for 10 minutes at room temperature in permeabilizing buffer (10 mM PIPES, 0.1 M NaCl, 2 mM MgCl2, 0.1% Triton X-100, pH 6.8) containing 0.1 mg DAPI (Invitrogen). After acquisition on an LSR II flow cytometer (BD) using a UV laser (350-360 nm), cell cycle status of glioma tumor cells was analyzed using the Flow Jo Dean-Jett-Fox program for cell cycle analysis.

## CNC(=O)c1cc(Oc2ccc3nc(N[C@@H]4CCCC[C@H]4O)sc3c2)ccn1 [BLZ945]
[1]
  IC50: 67 nM
[2]
  survival / viability of microglia cell line: reduced viability; also recorded: blocks survival
Established PDG gliomas; BLZ945, Day 3
  Apoptosis (% CC3+): +17-fold
  Macrophages (% CD68+): +3-fold
  Phagocytic Capacity: +11.5-fold
  Proliferation (% BrdU+Olig2+): −91%
  Total DAPI+ Cells: −72%
  Tumor Cells (% Olig2+): −27%
Established PDG gliomas; BLZ945, Day 7
  Apoptosis (% CC3+): +6-fold
  Macrophages (% CD68+): +2-fold
  Phagocytic Capacity: +5.0-fold
  Proliferation (% BrdU+Olig2+): −67%
  Total DAPI+ Cells: −80%
  Tumor Cells (% Olig2+): −77%
  Vasculature (CD31 MVD): −17%
Established PDG gliomas; BLZ945, Day 7, start 4.5-40 mm3
  Tumor Volume (Day −1 vs Day 6): +0.68%
Established PDG gliomas; BLZ945 Large, Day 3
  Apoptosis (% CC3+): +9-fold
  Macrophages (% CD68+): +2-fold
  Phagocytic Capacity: +7.1-fold
  Proliferation (% BrdU+Olig2+): −98%
  Total DAPI+ Cells: −40%
  Tumor Cells (% Olig2+): −14%
Established PDG gliomas; BLZ945 Large, Day 7
  Apoptosis (% CC3+): +2-fold
  Macrophages (% CD68+): +4-fold
  Phagocytic Capacity: +6.0-fold
  Proliferation (% BrdU+Olig2+): −94%
  Total DAPI+ Cells: −65%
  Tumor Cells (% Olig2+): −73%
  Vasculature (CD31 MVD): −67%
Established PDG gliomas; BLZ945 Large, Day 7, start >40 mm3
  Tumor Volume (Day −1 vs Day 6): −24.3%
Established PDG gliomas; BLZ945 Large, tumors >40 mm3, 7 day trial
  mice with >30% reduction in tumor volume (partial response, RECIST): 6 of 18
Established PDG gliomas; all groups and time points
  reduction of tumor cell proliferation: 67-98%
Established PDG gliomas; already evident at d3
  treated mice exhibiting a tumor response (histology): 100%
Established PDG gliomas; both treatment groups compared to vehicle
  average blood vessel length: decreased
Established PDG gliomas; by d7, both CSF-1R inhibitor groups
  average density of Olig2+ tumor cells, of total cells: < 20%
Established PDG gliomas; compared to vehicle
  TAM numbers in tumors: did not affect TAM numbers
Established PDG gliomas; d3
  increase in apoptosis: 9-to 17 fold
Established PDG gliomas; d7
  Iba1+ macrophages that are CSF-1R+ within the tumor: no significant differences
Established PDG gliomas; day 7, flow cytometry
  immune cell infiltration, comparisons between treatment groups: not significant
Established PDG gliomas; mouse, in vivo
  microglia in adjacent normal brain: evident microglia depletion
  pericyte coverage of the vessels: no significant differences
Established PDG gliomas; starting tumor volume 4.5-40 mm3, 7 day trial
  tumor growth (MRI tumor volume): significantly halted tumor growth
Established PDG gliomas; treated groups
  increase in Olig2+CC3+ cells engulfed by CD11b+ macrophages: 2 to 4 fold
  increased phagocytic capacity of macrophages: 5 to 11.5 fold
[3]
  tumor neurosphere formation (number or size of secondary neurospheres): no effect; also recorded: does not affect the number or size
PDG tumor cell lines
  proliferation of PDG tumor cell lines: no effect
U-87 MG glioma cell line
  U-87 MG human glioma cell proliferation: no effect
[4]; 200 mg/kg once daily, up to 26 weeks
  tolerability: well-tolerated
[4]; 26-week endpoint
  asymptomatic mice with no detectable lesions at end stage: 55.6%
[4]; 26 weeks post-injection, 200 mg/kg once daily from 2.5 weeks
  cohort still alive at trial endpoint (symptom-free survival): 64.3%
[4]; versus vehicle, long-term survival trial
  tumor grade: significantly less malignant tumors
[5]
  increase in tumor cell cycle entry with GCM-preconditioned BMDMs: blocked
